US7058616B1, “Method and system for predicting resistance of a disease to a therapeutic agent using a neural network” (Virco Bvba, priority 2000, dated 2006)

System: HIV-1
Assay: MT-4 cell viral cytopathic effect protection assay, phenotypic susceptibility of patient recombinant virus
Format: cell-based
Protocol: Phenotypic susceptibility was determined using a MT-4 cell viral cytopathic effect protection assay. See, e.g., Kashiwase et al., Chemotherapy 45(1):48–55 (1999), expressly incorporated herein by reference; Larder et al., Antimicrob. Agents Chemother. 43(8):1961–1967 (1999).

CC(C)(C)NC(=O)[C@@H]1CN(Cc2cccnc2)CCN1C[C@@H](O)C[C@@H](Cc1ccccc1)C(=O)N[C@H]1c2ccccc2C[C@H]1O [Indinavir]
actual phenotype resistance level (PI test sample 4): R/R (if the value is greater than 10, it is considered to be ‘resistant’)
actual phenotype resistance level (PI test sample 5): R (if the value is greater than 10, it is considered to be ‘resistant’)
actual phenotype resistance level (PI test sample 6): S/S (A fold resistance of less than or equal to 4 is considered to be ‘sensitive’)
actual phenotype resistance level (PI test sample 7): S/S (A fold resistance of less than or equal to 4 is considered to be ‘sensitive’)
actual phenotype resistance level (PI test sample 8): S/S (A fold resistance of less than or equal to 4 is considered to be ‘sensitive’)
actual phenotype resistance level (PI test sample 9): S/S (A fold resistance of less than or equal to 4 is considered to be ‘sensitive’)
actual phenotype resistance level (PI test sample 10): S/S (A fold resistance of less than or equal to 4 is considered to be ‘sensitive’)
actual phenotype resistance level (PI test sample 11, listed as IDV): S (A fold resistance of less than or equal to 4 is considered to be ‘sensitive’)
actual phenotype resistance level (PI test sample 12): S/S (A fold resistance of less than or equal to 4 is considered to be ‘sensitive’)
actual phenotype resistance level (PI test sample 13): R/R (if the value is greater than 10, it is considered to be ‘resistant’)
actual phenotype resistance level (PI test sample 14): R/R (if the value is greater than 10, it is considered to be ‘resistant’)
actual phenotype resistance level (PI test sample 16): R/R (if the value is greater than 10, it is considered to be ‘resistant’)
actual phenotype resistance level (PI test sample 17): R/R (if the value is greater than 10, it is considered to be ‘resistant’)
actual phenotype resistance level (PI test sample 22): S (A fold resistance of less than or equal to 4 is considered to be ‘sensitive’)
actual phenotype resistance level (PI test sample 23): R/R (if the value is greater than 10, it is considered to be ‘resistant’)
actual phenotype resistance level (PI test sample 24): R/R (if the value is greater than 10, it is considered to be ‘resistant’)
actual phenotype resistance level (PI test sample 26): R/R (if the value is greater than 10, it is considered to be ‘resistant’)
actual phenotype resistance level (PI test sample 27): R/R (if the value is greater than 10, it is considered to be ‘resistant’)
actual phenotype resistance level (PI test sample 28): R/R (if the value is greater than 10, it is considered to be ‘resistant’)
actual phenotype resistance level (PI test sample 32): R/R (if the value is greater than 10, it is considered to be ‘resistant’)
actual phenotype resistance level (PI test sample 35): R/R (if the value is greater than 10, it is considered to be ‘resistant’)
actual phenotype resistance level (PI test sample 36): R/R (if the value is greater than 10, it is considered to be ‘resistant’)
actual phenotype resistance level (PI test sample 37): I/I (greater than 4 and less than 10 is considered to be ‘intermediate’)
actual phenotype resistance level (PI test sample 38): R/R (if the value is greater than 10, it is considered to be ‘resistant’)
actual phenotype resistance level (PI test sample 39): R/R (if the value is greater than 10, it is considered to be ‘resistant’)
actual phenotype resistance level (PI test sample 40): R/R (if the value is greater than 10, it is considered to be ‘resistant’)
actual phenotype resistance level (PI test sample 43): I/I (greater than 4 and less than 10 is considered to be ‘intermediate’)
actual phenotype resistance level (PI test sample 45): R/R (if the value is greater than 10, it is considered to be ‘resistant’)
actual phenotype resistance level (PI test sample 46): R/R (if the value is greater than 10, it is considered to be ‘resistant’)
actual phenotype resistance level (PI test sample 47, listed as IDV): R/R (if the value is greater than 10, it is considered to be ‘resistant’)
actual phenotype resistance level (PI test sample 48): R/R (if the value is greater than 10, it is considered to be ‘resistant’)
actual phenotype resistance level (PI test sample 49): R/R (if the value is greater than 10, it is considered to be ‘resistant’)
actual phenotype resistance level (PI test sample 51): R/R (if the value is greater than 10, it is considered to be ‘resistant’)
actual phenotype resistance level (PI test sample 53): R/R (if the value is greater than 10, it is considered to be ‘resistant’)
actual phenotype resistance level (Table 3 testing sample 1): S/S (A fold resistance of less than or equal to 4 is considered to be “sensitive,”)
actual phenotype resistance level (Table 3 testing sample 2): S/S (A fold resistance of less than or equal to 4 is considered to be “sensitive,”)
actual phenotype resistance level (Table 3 testing sample 5): R/R (if the value is greater than 10, it is considered to be “resistant.”)
actual phenotype resistance level (Table 3 testing sample 7): S/S (A fold resistance of less than or equal to 4 is considered to be “sensitive,”)
actual phenotype resistance level (Table 3 testing sample 9): S/S (A fold resistance of less than or equal to 4 is considered to be “sensitive,”)
actual phenotype resistance level (Table 3 testing sample 10): S (A fold resistance of less than or equal to 4 is considered to be “sensitive,”)
actual phenotype (Table 13/14 sample 2: 10I,46I,48V,77I,82A,90M, 10E,58E,63T): S (A fold resistance of less than or equal to 4 is considered to be ‘sensitive’)
actual phenotype (Table 13/14 sample 8: 10I,54V,71V,73S,84V,90M, 33M,63P): I (greater than 4 and less than 10 is considered to be ‘intermediate’)
actual phenotype (Table 13/14 sample 13: 10I,36I,71T,90M, 63P,73T): I (greater than 4 and less than 10 is considered to be ‘intermediate’)
actual phenotype (Table 13/14 sample 14: 10I,46I,71T,77I,90M, 57K,63P,93L): S (A fold resistance of less than or equal to 4 is considered to be ‘sensitive’)
actual phenotype (Table 13/14 sample 17: 46I,77I,90M, 10F,20L,63P): I (greater than 4 and less than 10 is considered to be ‘intermediate’)
actual phenotype (Table 13/14 sample 18: 36I,71T,90M, 63P,93L): S (A fold resistance of less than or equal to 4 is considered to be ‘sensitive’)
actual phenotype (Table 13/14 sample 20: 77I,88S, 13V, 63P, 93L): S (A fold resistance of less than or equal to 4 is considered to be ‘sensitive’)
actual phenotype (Table 13/14 sample 21: 10I,77I,84V,90M, 63Q): I (greater than 4 and less than 10 is considered to be ‘intermediate’)
actual phenotype (Table 13/14 sample 22: 10I,20R,36I,71V,73S,84V,90M, 13V,63P): R (if the value is greater than 10, it is considered to be ‘resistant’)

Nc1ccn([C@H]2CC[C@@H](CO)O2)c(=O)n1 [DDC]
actual phenotype resistance level (Table 3 testing sample 1): S/S (A fold resistance of less than or equal to 4 is considered to be “sensitive,”)
actual phenotype resistance level (Table 3 testing sample 2): S/S (A fold resistance of less than or equal to 4 is considered to be “sensitive,”)
actual phenotype resistance level (Table 3 testing sample 3): S/S (A fold resistance of less than or equal to 4 is considered to be “sensitive,”)
actual phenotype resistance level (Table 3 testing sample 4): S/S (A fold resistance of less than or equal to 4 is considered to be “sensitive,”)
actual phenotype resistance level (Table 3 testing sample 5): S/S (A fold resistance of less than or equal to 4 is considered to be “sensitive,”)
actual phenotype resistance level (Table 3 testing sample 6): I (greater than 4 and less than 10 is considered to be “intermediate,”)
actual phenotype resistance level (Table 3 testing sample 7): S/S (A fold resistance of less than or equal to 4 is considered to be “sensitive,”)
actual phenotype resistance level (Table 3 testing sample 8): S (A fold resistance of less than or equal to 4 is considered to be “sensitive,”)
actual phenotype resistance level (Table 3 testing sample 9): S/S (A fold resistance of less than or equal to 4 is considered to be “sensitive,”)
actual phenotype resistance level (Table 3 testing sample 10): S/S (A fold resistance of less than or equal to 4 is considered to be “sensitive,”)

CC(C)(C)NC(=O)[C@@H]1C[C@@H]2CCCC[C@@H]2CN1C[C@@H](O)[C@H](Cc1ccccc1)NC(=O)[C@H](CC(N)=O)NC(=O)c1ccc2ccccc2n1 [Saquinavir]
actual phenotype (Table 13/14 sample 1: 10I,71V,73S,84V,90M, 63P,85V,93L): R (if the value is greater than 10, it is considered to be ‘resistant’)
actual phenotype (Table 13/14 sample 9: 10I,46L,54V,71V,82A,90M, 63P,93L): S (A fold resistance of less than or equal to 4 is considered to be ‘sensitive’)
actual phenotype (Table 13/14 sample 11: 10I,46L,54V,71V,77I,82A,90M, 55R,58E,63P,93L): R (if the value is greater than 10, it is considered to be ‘resistant’)
actual phenotype (Table 13/14 sample 19: 54V,71V,82A, 63P,93L): I (greater than 4 and less than 10 is considered to be ‘intermediate’)

Nc1nc(NC2CC2)c2ncn([C@H]3C=C[C@@H](CO)C3)c2n1 [1592 U89]
actual phenotype resistance level (Table 3 testing sample 1): S/S (A fold resistance of less than or equal to 4 is considered to be “sensitive,”)
actual phenotype resistance level (Table 3 testing sample 2): S (A fold resistance of less than or equal to 4 is considered to be “sensitive,”)
actual phenotype resistance level (Table 3 testing sample 3): S/S (A fold resistance of less than or equal to 4 is considered to be “sensitive,”)
actual phenotype resistance level (Table 3 testing sample 4): S/S (A fold resistance of less than or equal to 4 is considered to be “sensitive,”)
actual phenotype resistance level (Table 3 testing sample 5): S/S (A fold resistance of less than or equal to 4 is considered to be “sensitive,”)
actual phenotype resistance level (Table 3 testing sample 6): I (greater than 4 and less than 10 is considered to be “intermediate,”)
actual phenotype resistance level (Table 3 testing sample 7): S/S (A fold resistance of less than or equal to 4 is considered to be “sensitive,”)
actual phenotype resistance level (Table 3 testing sample 8): I (greater than 4 and less than 10 is considered to be “intermediate,”)
actual phenotype resistance level (Table 3 testing sample 9): S/S (A fold resistance of less than or equal to 4 is considered to be “sensitive,”)
actual phenotype resistance level (Table 3 testing sample 10): S/S (A fold resistance of less than or equal to 4 is considered to be “sensitive,”)
